Test results reported in patent publication US20250327029A1, “PROCESS FOR THE OBTENTION OF INVARIANT NATURAL KILLER T CELLS” (Université de Lorraine, priority 2022, published 2025).

Tested on: CD4^− iNKT cells
Experiment: Expansion of iNKT cells from PBMC cultured with alpha-GalCer and a cytokine (IL-15 or IL-2)
Type: cell-based, human
Procedure: The expansion factor of iNKT cells is more preferably comprised between 100 and 10 000. The “expansion factor” corresponds to the number of iNKT cells obtained at day 14 of expansion divided by the number of iNKT cells put in culture at day 0. The number of cells is determined by routinely used techniques by the skilled person (cell couting and flow cytometry staining to determine the percentage of iNKT cells among total PBMCs).
PBMC obtained by centrifugation of fresh whole blood on density gradient were culture at the concentration of 5.10^5 cells/mL in RPMI 1640 advanced medium (ref: 11530446, Gibco®), with 5% SVF v/v, 4 mM glutamine, 100 ng/mL alpha-galactoside-ceramide (KRN-7000, Funakoshi). Cultures were performed in a cell culture bag in a normoxia incubator at 37° C. and 5% CO2.
On day 1 of culture, 10 ng/mL of IL-15 were added.
On day 7 of culture, 50% of the medium was changed and 10 ng/mL of IL-15 were introduced.
On day 10 of the culture, 50% of the medium was changed and 10 ng/mL of IL-15 were introduced.
On day 14 of the culture, the obtained iNKT cells were sorted by performing a magnetic CD4^+ cell isolation (CD4 MicroBeads kit commercialized by Miltenyi Biotec Inc.), retrieving the negative fraction, performing a magnetic iNKT^+ isolation on said fraction (Anti-iNKT MicroBeads kit commercialized by Miltenyi Biotec Inc.) and retrieving the positive fraction corresponding to the isolated CD4^− iNKT cell population.

## IL-15: human cytokine that stimulates the proliferation of T-lymphocytes; Uniprot P40933
D14 of culture, n=14
  mean % CD4^− iNKT cells±SEM: 60.6±5.23%
Cytokine present during expansion phase, n=17, cells at day 14 / cells at day 0
  mean expansion factor of CD4^− iNKT cells±SEM: 652±128
End of 14-day culture, healthy donor PBMC
  CD4^− iNKT cells among the expanded iNKT cells: 61%
Healthy donor PBMC, 0.82% iNKT at D0
  percentage of iNKT cells at the end of the 14-day culture (% among total T lymphocytes): 81.5%
